Converted amounts (≈) assume the structure as drawn. The source made the active and inactive calls. No cut-off for these calls is given here.
Legend:
Chikungunya virus [1] = assay: Antiviral activity against Chikungunya virus 899 infected in African green monkey Vero cells assessed as reduction in viral RNA replication preincubated for 2 hrs with subsequent viral infected followed by media replacement with compound and measured after 48 hrs by qRT-PCR analysis; format: functional, organism-based; conditions: dose 0.25-60 µM, time 50.0 hrs
[2] = Cytotoxicity against African green monkey Vero cells assessed as reduction in overall metabolic activity incubated for 5 days by MTS reagent based absorbance method; format: toxicity, cell-based; conditions: chlorocebus sabaeus, time 5 day
[3] = Metabolic stability in human liver microsomes assessed as parent compound remaining preincubated for 5 mins followed by NADPH addition and measured upto 60 mins by HPLC-MS/MS analysis; format: ADME, Microsome; conditions: time < 65 min, read-out: Stability
Caco-2 [4] = assay: Cytotoxicity against human Caco-2 cells incubated for 24 to 72 hrs by MTT assay; format: toxicity, cell-based; conditions: time 24-72 hrs
Caco-2 [5] = assay: Induction of apoptosis in human Caco-2 cells assessed as increase in PARP expression at 6.25 to 100 uM incubated for 72 hrs by Western blot analysis; format: toxicity, cell-based; conditions: caco-2, 72 h, dose 6.25-100 µM
[6] = Aqueous solubility of compound at pH 7.4 by HPLC analysis; format: physicochemical
[7] = Selectivity index, ratio of CC50 for cytotoxicity against African green monkey Vero cells to EC50 for antiviral activity against Chikungunya virus infected in African green monkey Vero cells assessed as reduction in viral induced cell death; format: toxicity, cell-based; conditions: read-out: Ratio CC50/EC50
Chikungunya virus [8] = assay: Fold resistance , ratio of EC50 for antiviral activity against CHVB-resistant Chikungunya virus infected in African green monkey Vero cells to EC50 for antiviral activity against wildtype Chikungunya virus 899 infected in African green monkey Vero cells; format: functional
Chikungunya virus [9] = assay: Antiviral activity against Chikungunya virus infected in African green monkey Vero cells assessed as reduction in viral induced cell death incubated for 5 days by MTS reagent based absorbance method; format: functional, organism-based; conditions: 120 h
[10] = Metabolic stability in human liver microsomes assessed as half-life preincubated for 5 mins followed by NADPH addition and measured upto 60 mins by HPLC-MS/MS analysis; format: ADME, Microsome; conditions: time < 65 min
Caco-2 [11] = assay: Induction of apoptosis in human Caco-2 cells assessed as increase in caspase-3 expression at 6.25 to 100 uM incubated for 72 hrs by Western blot analysis; format: toxicity, cell-based; conditions: caco-2, 72 h, dose 6.25-100 µM
Enterovirus = assay: Antiviral activity against Human enterovirus 71 infected in African green monkey Vero cells assessed as reduction in virus induced cell death; format: functional, organism-based
Zika virus = assay: Antiviral activity against Zika virus infected in African green monkey Vero cells assessed as reduction in virus induced cell death; format: functional, organism-based
hERG (KCNH2) = hERG (KCNH2) (Homo sapiens, UniProt Q12809); assay: Inhibition of hERG in Xenopus laevis Oocytes upto 30 uM incubated for 10 mins by patch-clamp method relative to control; format: cell-based, Oocyte; conditions: Xenopus laevis oocytes expressing hERG
Semliki Forest virus = assay: Antiviral activity against Semliki forest virus infected in African green monkey Vero cells assessed as reduction in virus induced cell death; format: functional, organism-based
Sindbis virus = assay: Antiviral activity against Sindbis virus HRsp infected in African green monkey Vero cells assessed as reduction in virus induced cell death; format: functional, organism-based

hERG (KCNH2), sequence (Q12809 whole entry): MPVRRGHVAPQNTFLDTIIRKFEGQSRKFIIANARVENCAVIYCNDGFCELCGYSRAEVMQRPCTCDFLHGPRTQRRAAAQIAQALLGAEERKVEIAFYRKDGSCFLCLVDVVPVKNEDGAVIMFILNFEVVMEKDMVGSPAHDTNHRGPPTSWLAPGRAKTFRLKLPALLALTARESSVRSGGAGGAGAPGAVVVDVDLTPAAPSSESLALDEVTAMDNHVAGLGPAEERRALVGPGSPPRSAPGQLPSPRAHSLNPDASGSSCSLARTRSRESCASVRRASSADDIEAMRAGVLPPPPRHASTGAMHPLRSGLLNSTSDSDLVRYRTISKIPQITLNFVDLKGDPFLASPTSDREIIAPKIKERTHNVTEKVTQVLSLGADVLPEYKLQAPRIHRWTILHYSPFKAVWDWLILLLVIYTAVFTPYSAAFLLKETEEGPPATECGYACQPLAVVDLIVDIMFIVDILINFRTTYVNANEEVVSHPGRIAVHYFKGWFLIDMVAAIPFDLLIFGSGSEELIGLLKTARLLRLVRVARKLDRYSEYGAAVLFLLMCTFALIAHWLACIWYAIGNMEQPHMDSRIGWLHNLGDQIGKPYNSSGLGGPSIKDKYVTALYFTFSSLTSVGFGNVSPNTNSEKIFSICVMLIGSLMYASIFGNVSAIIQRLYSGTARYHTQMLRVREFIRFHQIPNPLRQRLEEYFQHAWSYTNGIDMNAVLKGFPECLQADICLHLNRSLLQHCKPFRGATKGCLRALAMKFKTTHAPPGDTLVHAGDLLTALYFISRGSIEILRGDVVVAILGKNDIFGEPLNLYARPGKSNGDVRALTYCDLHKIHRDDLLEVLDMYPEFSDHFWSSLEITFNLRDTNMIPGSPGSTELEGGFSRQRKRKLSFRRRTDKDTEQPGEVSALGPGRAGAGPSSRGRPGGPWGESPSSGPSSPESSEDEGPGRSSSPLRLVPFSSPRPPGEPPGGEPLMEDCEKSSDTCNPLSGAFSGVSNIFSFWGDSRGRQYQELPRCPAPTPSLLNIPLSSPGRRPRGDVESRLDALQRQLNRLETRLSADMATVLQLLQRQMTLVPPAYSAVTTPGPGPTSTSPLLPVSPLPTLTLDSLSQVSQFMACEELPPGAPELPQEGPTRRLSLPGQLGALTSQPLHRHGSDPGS

CCNc1nc(C)cc(N2CCN(C(=O)c3ccc([N+](=O)[O-])cc3)CC2)n1
Activity (Chikungunya virus [1]): Dose-Dependent Effect | CC50 at 120 h [2]: > 100 µM | remaining at 1 h [3]: 100% | Activity (Caco-2 [4]): Non-Toxic | Activity (Caco-2 [5]): Non-Toxic | solubility [6]: > 120 µM | selectivity ratio [7]: > 110 | Ratio EC50 (Chikungunya virus [8]): 14 | EC50 (Chikungunya virus [9]): 0.91 µM | half-life [10]: > 60 min | Activity (Caco-2 [11]): Non-Toxic

O=S(=O)(c1ccc(F)cc1)N1CCN(c2ncccn2)CC1
solubility [6]: 64 µM (≈ 20.6 µg/mL) | Activity (Enterovirus): inactive | Activity (Zika virus): inactive | inhibition at 10 min, up to 30 µM (hERG (KCNH2)): 9.63% | Activity (Semliki Forest virus): inactive | Activity (Sindbis virus): inactive | EC50 (Chikungunya virus [9]): 310 µM

— ChEMBL document CHEMBL5537149, “Design, synthesis, and lead optimization of piperazinyl-pyrimidine analogues as potent small molecules targeting the viral capping machinery of Chikungunya virus” (Eur J Med Chem, 2024)
